Data reported in patent US20100029604A1, “ANTIBACTERIAL COMBINATION AND ITS USE” (priority 2007, published 2010).
In brackets after ≈: the same amount, converted by molar mass.

Legend:
[1] = system: E. coli TEM-1; assay type: cell-based; details: TEM-1, class A, inhibitor constant 4 μg/mL
[2] = system: E. coli TEM-2; assay type: cell-based; details: TEM-2, class A, inhibitor constant 4 μg/mL
[3] = system: K. pneumoniae SHV-18; experiment: Synergy MIC, inhibitor at 4 μg/mL (Example 4); assay type: cell-based; details: SHV-18, class A, inhibitor constant 4 μg/mL
[4] = system: E. coli SHV-3; experiment: Synergy MIC, inhibitor at 4 μg/mL (Example 4); assay type: cell-based; details: SHV-3, class A, inhibitor constant 4 μg/mL
[5] = system: C. freundii AmpC; experiment: Synergy MIC, inhibitor at 4 μg/mL (Example 4); assay type: cell-based, Citrobacter freundii; details: class C, inhibitor constant 4 μg/mL
Description: (§1) The in vitro activities of the antibiotics were determined by the broth microdilution method and agar dilution technique as recommended by CLSI guidelines. The MIC experiments were performed in duplicate in 96-well microtiter plates using MHB. Serial twofold dilutions of each antibiotic either alone or in combination with a constant amount (4 μg/mL) of a β-lactamase inhibitor were prepared in MHBII broth. A sterile pipette tip was used to mix the contents of each well (one tip was used going from the low to the high concentration in the same column). The bacterial suspension with final inoculum 10^5 CFU/mL was transferred to the test medium containing the antibacterial substances by a multipoint inoculator (Dynatech, Chantilly, Va., USA). The plates were then incubated at 35° C. for 24 h.
(§2) Following procedures identical to those described in Example 3, representative compound of Formula (I) was tested for its ability to enhance antibiotic efficacy against Class C β-lactamase positive bacterial strains that are highly resistant to β-lactam antibiotics. Class C enzymes included AmpC β-lactamases of Enterobacter Cloacae and Citrobacter freundii.

[6] = system: E. cloacae AmpC; experiment: Synergy MIC, inhibitor at 4 μg/mL (Example 4); assay type: cell-based, Enterobacter Cloacae; details: class C, inhibitor constant 4 μg/mL
Description: as §1, §2

[7] = system: Pseudomonas aeruginosa OXA-10; experiment: MIC, characterised β-lactamase producing strain (Example 5, Tables 5-7); assay type: cell-based; details: Table 6; Pseudomonas aeruginosa OXA-10; LK-157 at constant 4 μg/mL in combination
Description: The MIC experiments were performed in duplicate in 96-well microtiter plates using CAMHB. […] The bacterial suspension with final inoculum 10^5 CFU/mL was transferred to the test medium containing the antibacterial substances. In each well of a 96-well microtiter plate was combined 50 μL of bacterial inoculum, 50 μL of antibiotic dilutions (or media for determination of the MIC of the antibiotic in the absence of test compound). Each plate included 4 wells with no bacterial inoculum (negative control) and 4 wells with no test compound and no antibiotic (positive control). The plates were incubated at 35° C. for 24 h. Purity check and colony counts on each inoculum suspension was performed to ensure that the final inoculum concentration routinely obtained closely approximates 5×10^5 CFU/mL. In addition the assay is routinely monitored by testing standard antibiotics and ensuring that MIC values are within the recommended ranges for the respective strains.
(§3) This test permits comparisons to be made between bacterial growth in the presence of antibiotic alone and bacterial growth in the presence of both an antibiotic and a novel (test) compound.

[8] = system: Escherichia coli HMS-1; experiment: as above; assay type: cell-based; details: Table 6; Escherichia coli HMS-1; LK-157 at constant 4 μg/mL in combination
Description: (§4) The MIC experiments were performed in duplicate in 96-well microtiter plates using CAMHB. Serial twofold dilutions of each antibiotic either alone or in combination with constant concentration ratio of a β-lactamase inhibitor (2:1) were prepared in CAMHB. The bacterial suspension with final inoculum 10^5 CFU/mL was transferred to the test medium containing the antibacterial substances. In each well of a 96-well microtiter plate was combined 50 μL of bacterial inoculum, 50 μL of antibiotic dilutions (or media for determination of the MIC of the antibiotic in the absence of test compound). Each plate included 4 wells with no bacterial inoculum (negative control) and 4 wells with no test compound and no antibiotic (positive control). The plates were incubated at 35° C. for 24 h. Purity check and colony counts on each inoculum suspension was performed to ensure that the final inoculum concentration routinely obtained closely approximates 5×10^5 CFU/mL. In addition the assay is routinely monitored by testing standard antibiotics and ensuring that MIC values are within the recommended ranges for the respective strains.
as §3

[9] = system: Escherichia coli OXA-2; experiment: as above; assay type: cell-based; details: Table 6; Escherichia coli OXA-2; LK-157 at constant 4 μg/mL in combination
Description: as §4, §3

[10] = system: Escherichia coli OXA-3; experiment: as above; assay type: cell-based; details: Table 6; Escherichia coli OXA-3; LK-157 at constant 4 μg/mL in combination
Description: as §4, §3

[11] = system: Escherichia coli OXA-5; experiment: as above; assay type: cell-based; details: Table 6; Escherichia coli OXA-5; LK-157 at constant 4 μg/mL in combination
Description: as §4, §3

[12] = system: Escherichia coli SHV-2A; experiment: as above; assay type: cell-based; details: Table 6, LK-157 at constant 4 μg/mL in combination
Description: as §4, §3

[13] = system: Escherichia coli SHV-3; experiment: as above; assay type: cell-based; details: Table 6; Escherichia coli SHV-3; LK-157 at constant 4 μg/mL in combination
Description: as §4, §3

[14] = system: Escherichia coli TEM-2; experiment: as above; assay type: cell-based; details: Table 6; Escherichia coli TEM-2; LK-157 at constant 4 μg/mL in combination
Description: as §4, §3

[15] = system: Escherichia coli TEM-31; experiment: as above; assay type: cell-based; details: Table 6; Escherichia coli TEM-31; LK-157 at constant 4 μg/mL in combination
Description: as §4, §3

[16] = system: Escherichia coli TEM-35; experiment: as above; assay type: cell-based; details: Table 6; Escherichia coli TEM-35; LK-157 at constant 4 μg/mL in combination
Description: as §4, §3

[17] = system: Escherichia coli TEM-3; experiment: as above; assay type: cell-based; details: Table 6; Escherichia coli TEM-3; LK-157 at constant 4 μg/mL in combination
Description: as §4, §3

[18] = system: Klebsiella oxytoca K1 highperproduced; experiment: as above; assay type: cell-based; details: Table 6, Klebsiella oxytoca K1 highperproduced, LK-157 at constant 4 μg/mL in combination
Description: as §4, §3

[19] = system: Pseudomonas aeruginosa CARB-3; experiment: as above; assay type: cell-based; details: Table 6; Pseudomonas aeruginosa CARB-3; LK-157 at constant 4 μg/mL in combination
Description: as §4, §3

[20] = system: Escherichia coli TEM-1; assay type: cell-based; details: Table 6; Escherichia coli TEM-1; LK-157 at constant 4 μg/mL in combination
Description: as §4, §3

SMILES: CO/N=C(\C(=O)N[C@@H]1C(=O)N2C(C(=O)O)=C(COC(C)=O)CS[C@H]12)c1csc(N)n1 [cefotaxime]
- MIC [1]: > 25.6 µg/mL
- MIC [2]: 0.1 µg/mL (≈ 0.22 µM)
- MIC [3]: 3.2 µg/mL
- MIC [4]: 3.2 µg/mL
- MIC [5]: > 25.6 µg/mL
- MIC ([6]; first listed): > 25.6 µg/mL
- MIC ([6]; second listed): > 25.6 µg/mL
- MIC ([6]; third listed): > 25.6 µg/mL
- MIC [7]: 64 µg/mL
- MIC [8]: 0.063 µg/mL
- MIC [9]: 0.063 µg/mL
- MIC [10]: 0.063 µg/mL
- MIC [11]: 0.25 µg/mL
- MIC [12]: 8 µg/mL
- MIC [13]: 32 µg/mL
- MIC [14]: 0.063 µg/mL
- MIC [15]: 0.063 µg/mL
- MIC [16]: 0.031 µg/mL
- MIC [17]: 16 µg/mL
- MIC ([18]; first listed strain): 1 µg/mL
- MIC ([18]; second listed strain): 1 µg/mL
- MIC [19]: 16 µg/mL
- MIC [20]: 0.063 µg/mL
